The record followed here is ChEMBL document CHEMBL3232742, “Design, synthesis and evaluation of a cellular stable and detectable biotinylated fumagillin probe and investigation of cell permeability of fumagillin and its analogs to endothelial and cancer cells” (Eur J Med Chem, 2013).

Series [1] deals with Methionine aminopeptidase 2 (Homo sapiens) (UniProt P50579). Description: Binding affinity to MetAP2 in compound pre-treated HUVEC at 0.1 uM after 48 hrs by Western blotting analysis.
Another series relates to A549. Description: Antiproliferative against human A549 cells assessed as cell viability up to 1000 nM after 96 hrs by MTT assay. Type of series: functional.
Series [2] addresses Methionine aminopeptidase 2 (Homo sapiens) (UniProt P50579). Description: Binding affinity to MetAP2 in HUVEC at 0.1 uM by Western blotting analysis.
Series [3] shares this target. Kind of series: Binding affinity to MetAP2 in fumagillin-pretreated HUVEC at 0.1 uM by Western blotting analysis.
A further series concerns MCF7. Description: Antiproliferative against human MCF7 cells assessed as cell viability up to 1000 nM after 96 hrs by MTT assay. Type of series: functional.
Series [4] concerns HUVEC. Kind of series: Antiproliferative against HUVEC cells assessed as cell viability after 96 hrs by MTT assay. Type of series: functional, cell-based. Particulars: Homo sapiens.
The nature of series [5]: Antiproliferative against human Bel7402 cells assessed as cell viability up to 1000 nM after 96 hrs by MTT assay. Type of series: functional, Bel-7402.
The subject of series [6] is HepG2. Description: Antiproliferative against human HepG2 cells assessed as cell viability up to 1000 nM after 96 hrs by MTT assay. Type of series: functional.
A short description of series [7]: Antiproliferative against human Bel7402 cells assessed as cell viability after 96 hrs by MTT assay. Type of series: functional, cell-based. Particulars: Bel-7402, 96 h.
In series [8] the test system is HepG2. Description: Antiproliferative against human HepG2 cells assessed as cell viability after 96 hrs by MTT assay. Particulars: HepG2, 96 h. Type of series: functional, cell-based.
Series [9] concerns HepG2. Description: Stability in human HepG2 assessed as compound bound MetAP2 level at 0.1 uM by Western blotting analysis. Type of series: ADME, cell-based. Particulars: hepg2, 0.1 µM.
Series [10] has as its system HUVEC. Kind of series: Stability in HUVEC assessed as compound bound MetAP2 level at 0.1 uM by Western blotting analysis. Type of series: ADME, cell-based. The conditions noted are these: human.

Active and inactive are the calls of the source. No cut-off for these calls is given here.

Methionine aminopeptidase 2 (Homo sapiens), sequence (P50579 2-478 limits assumed): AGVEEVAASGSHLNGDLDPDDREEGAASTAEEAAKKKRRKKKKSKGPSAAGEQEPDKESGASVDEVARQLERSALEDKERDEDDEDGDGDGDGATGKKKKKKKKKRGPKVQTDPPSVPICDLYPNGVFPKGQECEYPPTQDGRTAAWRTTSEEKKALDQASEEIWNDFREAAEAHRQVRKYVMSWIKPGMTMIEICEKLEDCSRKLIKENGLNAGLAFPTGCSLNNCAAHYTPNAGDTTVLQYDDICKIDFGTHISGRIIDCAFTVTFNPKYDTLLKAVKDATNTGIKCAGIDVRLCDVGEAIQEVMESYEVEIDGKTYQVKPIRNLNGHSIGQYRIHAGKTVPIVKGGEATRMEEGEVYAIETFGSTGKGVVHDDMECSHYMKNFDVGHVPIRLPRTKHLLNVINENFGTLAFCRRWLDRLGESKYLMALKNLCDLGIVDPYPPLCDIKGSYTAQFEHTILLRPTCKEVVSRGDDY

As for `CO[C@@H]1[C@H](OC(=O)NCCCCCCCCNC(=O)CCCC[C@@H]2SC[C@@H]3NC(=O)N[C@@H]32)CC[C@]2(CO2)[C@H]1[C@@]1(C)O[C@@H]1CC=C(C)C`, the outcome in [1] and in series [3] was inactive. Moreover, the “inhibition (INH)” value (with A549; in the series on MCF7; in [5]; with HepG2 [6]) was less than 50% each time. For the same compound, the outcome in series [2] was Active. For the same compound, the IC50 in the series on HUVEC [4] was determined as 0.0098 µM.

`COc1cccc2c1C(=O)c1c(O)c3c(c(O)c1C2=O)C[C@@](O)(C(=O)CO)C[C@@H]3O[C@H]1C[C@H](N)[C@H](O)[C@H](C)O1` [DOXORUBICIN]: the values for the half-inhibitory concentration (IC50) (in series [7]; with HepG2 [8]) were 0.578 µM and 0.0202 µM, respectively.

Take `CO[C@@H]1[C@H](OC(=O)/C=C/C=C/C=C/C=C/C(=O)O)CC[C@]2(CO2)[C@H]1[C@@]1(C)O[C@@H]1CC=C(C)C` [FUMAGILLIN]: the “inhibition (INH)” value (in the series with A549; in the series with MCF7; in series [5]; in the series on HepG2 [6]) was less than 50% in each case. The half-maximal inhibitory concentration (IC50) with HUVEC [4] amounted to 0.0066 µM.

On to `CO[C@@H]1[C@H](OC(=O)NCCNC(=O)OCCOCCOCCOCCOCCOCCOC(=O)NCCCC[C@@H]2SC[C@@H]3NC(=O)N[C@@H]32)CC[C@]2(CO2)[C@H]1[C@@]1(C)O[C@@H]1CC=C(C)C`, for which the “inhibition (INH)” value (in the series on A549; in the series on MCF7; in series [5]; in the series on HepG2 [6]) was less than 50% throughout. Besides, the Stability result in the series with HepG2 [9] and in the series on HUVEC [10] was “Stable” in each case. In addition, the IC50 in the series on HUVEC [4] worked out at 0.06 µM.
